Data: ChEMBL document CHEMBL3046832, “Synthesis of some sulfonamides, disubstituted sulfonylureas or thioureas and some structurally related variants. A class of promising antitumor agents” (2007)

Columns and labels:
Type in all cases: functional
NCI-H460 = test: Cytotoxicity against Homo sapiens (human) NCI-H460 cells assessed as cellular growth after 48 hr by Alamar blue assay; set-up: concentration or dose not given beside the values
SW-620 = test: Cytotoxicity against Homo sapiens (human) SW620 cells after 48 hr by SRB assay; settings: SW-620, 48 h
HOP-62 = test: Cytotoxicity against Homo sapiens (human) HOP62 cells after 48 hr by SRB assay; settings: HOP-62, 48 h
OVCAR-4 = test: Cytotoxicity against Homo sapiens (human) OVCAR4 cells after 48 hr by SRB assay; settings: OVCAR-4, 48 h
SK-OV-3 = test: Cytotoxicity against Homo sapiens (human) SKOV3 cells after 48 hr by SRB assay; settings: SK-OV-3, 48 h
MCF7 [1] = test: Cytotoxicity against Homo sapiens (human) MCF7 cells after 48 hr by SRB assay; settings: MCF7, 48 h
OVCAR-3 = test: Cytotoxicity against Homo sapiens (human) OVCAR3 cells after 48 hr by SRB assay; settings: OVCAR-3, 48 h
[2] = Cytotoxicity against Homo sapiens (human) CNS cancer cells after 48 hr by SRB assay; settings: Cancer cell lines
SNB-19 = test: Cytotoxicity against Homo sapiens (human) SNB19 cells after 48 hr by SRB assay; settings: SNB-19, 48 h
MCF7 [3] = test: Cytotoxicity against Homo sapiens (human) MCF7 cells assessed as cellular growth after 48 hr by Alamar blue assay; set-up: concentration or dose not given beside the values
Hs-578T = test: Cytotoxicity against Homo sapiens (human) Hs578T cells after 48 hr by SRB assay
PC-3 = test: Cytotoxicity against Homo sapiens (human) PC3 cells after 48 hr by SRB assay; settings: PC-3, 48 h
U-251 = test: Cytotoxicity against Homo sapiens (human) U251 cells after 48 hr by SRB assay; settings: U-251, 48 h
[4] = Cytotoxicity against Homo sapiens (human) NCI-H322 cells after 48 hr by SRB assay; settings: NCI-H322, 48 h
A549 = test: Cytotoxicity against Homo sapiens (human) A549 cells after 48 hr by SRB assay; settings: A549, 48 h
NCI-H23 = test: Cytotoxicity against Homo sapiens (human) NCI-H23 cells after 48 hr by SRB assay; settings: NCI-H23, 48 h
BT-549 = test: Cytotoxicity against Homo sapiens (human) BT549 cells after 48 hr by SRB assay; settings: BT-549, 48 h
RPMI-8226 = test: Cytotoxicity against Homo sapiens (human) RPMI8226 cells after 48 hr by SRB assay; settings: RPMI-8226, 48 h
MOLT-4 = test: Cytotoxicity against Homo sapiens (human) MOLT4 cells after 48 hr by SRB assay; settings: MOLT-4, 48 h
UO-31 = test: Cytotoxicity against Homo sapiens (human) UO31 cells after 48 hr by SRB assay; settings: UO-31, 48 h
[5] = Cytotoxicity against Homo sapiens (human) melanoma cells after 48 hr by SRB assay; settings: Melanoma cell
[6] = Cytotoxicity against Homo sapiens (human) leukemia cells after 48 hr by SRB assay; settings: Leukemia cell
SF-268 = test: Cytotoxicity against Homo sapiens (human) SF268 cells assessed as cellular growth after 48 hr by Alamar blue assay; set-up: concentration or dose not given beside the values
[7] = Cytotoxicity against Homo sapiens (human) breast cancer cells after 48 hr by SRB assay; settings: Cancer cell lines
M14 = test: Cytotoxicity against Homo sapiens (human) M14 cells after 48 hr by SRB assay; settings: M14, 48 h
KM12 = test: Cytotoxicity against Homo sapiens (human) KM12 cells after 48 hr by SRB assay; settings: KM12, 48 h
[8] = Cytotoxicity against Homo sapiens (human) ovarian cancer cells after 48 hr by SRB assay; settings: Cancer cell lines
MDA-MB-231 = test: Cytotoxicity against Homo sapiens (human) MDA-MB-231 cells after 48 hr by SRB assay; settings: MDA-MB-231, 48 h
SN12C = test: Cytotoxicity against Homo sapiens (human) SN12C cells after 48 hr by SRB assay
SF-295 = test: Cytotoxicity against Homo sapiens (human) SF295 cells after 48 hr by SRB assay; settings: SF-295, 48 h
CAKI-1 = test: Cytotoxicity against Homo sapiens (human) Caki1 cells after 48 hr by SRB assay; settings: CAKI-1, 48 h
HOP-92 = test: Cytotoxicity against Homo sapiens (human) HOP92 cells after 48 hr by SRB assay; settings: HOP-92, 48 h
UACC-62 = test: Cytotoxicity against Homo sapiens (human) UACC62 cells after 48 hr by SRB assay; settings: UACC-62, 48 h
HCT-15 = test: Cytotoxicity against Homo sapiens (human) HCT15 cells after 48 hr by SRB assay; settings: HCT-15, 48 h
[9] = Cytotoxicity against Homo sapiens (human) NCI-ADR-RES cells after 48 hr by SRB assay
IGROV-1 = test: Cytotoxicity against Homo sapiens (human) IGROV1 cells after 48 hr by SRB assay; settings: IGROV-1, 48 h
MDA-MB-435 = test: Cytotoxicity against Homo sapiens (human) MDA-MB-435 cells after 48 hr by SRB assay; settings: MDA-MB-435, 48 h
T47D = test: Cytotoxicity against Homo sapiens (human) T47D cells after 48 hr by SRB assay
RXF 393 = test: Cytotoxicity against Homo sapiens (human) RXF393 cells after 48 hr by SRB assay; settings: RXF 393, 48 h
OVCAR-5 = test: Cytotoxicity against Homo sapiens (human) OVCAR5 cells after 48 hr by SRB assay; settings: OVCAR-5, 48 h
[10] = Cytotoxicity against Homo sapiens (human) colon cancer cells after 48 hr by SRB assay; settings: Cancer cell lines
EKVX = test: Cytotoxicity against Homo sapiens (human) EKVX cells after 48 hr by SRB assay
SK-MEL-5 = test: Cytotoxicity against Homo sapiens (human) SK-MEL-5 cells after 48 hr by SRB assay; settings: SK-MEL-5, 48 h
786-0 = test: Cytotoxicity against Homo sapiens (human) 786-0 cells after 48 hr by SRB assay; settings: 786-0, 48 h
COLO 205 = test: Cytotoxicity against Homo sapiens (human) COLO205 cells after 48 hr by SRB assay; settings: COLO 205, 48 h
NCI-H522 = test: Cytotoxicity against Homo sapiens (human) NCI-H522 cells after 48 hr by SRB assay; settings: NCI-H522, 48 h
[11] = Cytotoxicity against Homo sapiens (human) renal cancer cells after 48 hr by SRB assay; settings: Cancer cell lines

In the case of `O=C1CCS/C(=N\S(=O)(=O)c2ccc(N3N=C4c5ccccc5CC4C3c3cccs3)cc2)N1c1ccccc1` (stereo unspecified), the Activity (NCI-H460) was “<=32%”, the GI50 (SW-620) was 24 µM and the GI50 (HOP-62) was 18.6 µM. It also gave a GI50 (OVCAR-4) of 49.3 µM, a GI50 (SK-OV-3) of 32.9 µM and a GI50 (MCF7 [1]) of 29.1 µM. It also gave a GI50 (OVCAR-3) of 25.9 µM, a GI50 [2] of 34.1 µM and a TGI [2] of 54.1 µM. For the same compound, the GI50 (SNB-19) was 22.3 µM, the Activity (MCF7 [3]) was “<=32%” and the GI50 (Hs-578T) was 60.6 µM. It also gave a GI50 (PC-3) of 75 µM, a GI50 (U-251) of 14.4 µM and a GI50 [4] of 12.8 µM. For the same compound, the GI50 (A549) was 14.4 µM, the GI50 (NCI-H23) was 16.7 µM and the GI50 (BT-549) was 47.5 µM. For the same compound, the GI50 (RPMI-8226) was 18.1 µM, the GI50 (MOLT-4) was 47 µM and the GI50 (UO-31) was over 100 µM. The GI50 [5] was 22 µM, the TGI [5] was 33.8 µM and the GI50 [6] was 48.3 µM. The TGI [6] was 93.9 µM, the Activity (SF-268) was “<=32%” and the GI50 [7] was 61.1 µM. The TGI [7] was 56.2 µM, the GI50 (M14) was 15.3 µM and the GI50 (KM12) was 17.1 µM. For the same compound, the GI50 [8] was 27.8 µM, the TGI [8] was 55.4 µM and the GI50 (MDA-MB-231) was 52.1 µM. The GI50 (SN12C) was 94.3 µM, the GI50 (SF-295) was 15.8 µM and the GI50 (CAKI-1) was 73 µM. The GI50 (HOP-92) was 35.9 µM, the GI50 (UACC-62) was 16.7 µM and the GI50 (HCT-15) was 15.9 µM. For the same compound, the GI50 [9] was over 100 µM, the GI50 (IGROV-1) was 17.4 µM and the GI50 (MDA-MB-435) was 38.7 µM. The GI50 (T47D) was over 100 µM, the GI50 (RXF 393) was 98.2 µM and the GI50 (OVCAR-5) was 22.4 µM. It also gave a GI50 [10] of 24.1 µM, a TGI [10] of 60.7 µM and a GI50 (EKVX) of 25.7 µM. It also gave a GI50 (SK-MEL-5) of 14.1 µM, a GI50 (786-0) of 64.2 µM and a GI50 (COLO 205) of 36.8 µM. It also gave a GI50 (NCI-H522) of 15.9 µM.
For `O=C1CS/C(=N\S(=O)(=O)c2ccc(N3N=C4c5ccccc5CC4C3c3cccs3)cc2)N(c2ccccc2)C1` (stereo unspecified), the Activity (NCI-H460) was “<=32%”, the GI50 (SW-620) was 45.2 µM and the GI50 (HOP-62) was 17.4 µM. The GI50 (OVCAR-4) was over 100 µM, the GI50 (SK-OV-3) was over 100 µM and the GI50 (MCF7 [1]) was 88.8 µM. For the same compound, the GI50 (OVCAR-3) was over 100 µM, the GI50 [2] was 57.4 µM and the TGI [2] was 99.7 µM. The GI50 (SNB-19) was 55.7 µM, the Activity (MCF7 [3]) was “<=32%” and the GI50 (Hs-578T) was 20.5 µM. The GI50 (PC-3) was 45 µM, the GI50 (U-251) was 28 µM and the GI50 [4] was 16.9 µM. For the same compound, the GI50 (A549) was 47.2 µM, the GI50 (NCI-H23) was 24.2 µM and the GI50 (BT-549) was 21.4 µM. The GI50 (RPMI-8226) was 31 µM, the GI50 (MOLT-4) was 0.01 µM and the GI50 (UO-31) was 69.3 µM. The GI50 [5] was 45.3 µM, the TGI [5] was 84.3 µM and the GI50 [6] was 19.5 µM. The TGI [6] was 82.1 µM, the Activity (SF-268) was “<=32%” and the GI50 [7] was 50.1 µM. For the same compound, the TGI [7] was 95.5 µM, the GI50 (M14) was 39.1 µM and the GI50 (KM12) was 28.4 µM. The GI50 [8] was 63.2 µM, the TGI [8] was over 100 µM and the GI50 (MDA-MB-231) was 21.4 µM. For the same compound, the GI50 (SN12C) was 34.3 µM, the GI50 (SF-295) was 32.7 µM and the GI50 [11] was 43.9 µM. The TGI [11] was 96.4 µM, the GI50 (CAKI-1) was 74.5 µM and the GI50 (HOP-92) was 79.9 µM. The GI50 (UACC-62) was 16.1 µM, the GI50 (HCT-15) was 35.5 µM and the GI50 [9] was over 100 µM. For the same compound, the GI50 (IGROV-1) was 19.5 µM, the GI50 (MDA-MB-435) was 29.5 µM and the GI50 (T47D) was 69.2 µM. For the same compound, the GI50 (RXF 393) was 41 µM, the GI50 (OVCAR-5) was 34.5 µM and the GI50 [10] was 37.2 µM. It also gave a TGI [10] of 66.3 µM, a GI50 (EKVX) of 39.5 µM and a GI50 (SK-MEL-5) of 38.2 µM. The GI50 (786-0) was 22.1 µM, the GI50 (COLO 205) was 57.2 µM and the GI50 (NCI-H522) was 23.8 µM.
